Experimental findings from ChEMBL document CHEMBL1146336, “The dicationic derivatives of DBTAA: Interactions with DNA/RNA and antiproliferative effects on human cell lines” (Bioorg Med Chem, 2007) are described below.

Assay [1] can be described thus: Binding affinity to poly G-poly C 0.05 mol/dm^3 by UV/vis titration.
For a further assay, the system named is HEp-2. Nature of the assay: Antiproliferative activity against human Hep2 cells after 72 hrs by MTT assay. The format is functional, cell-based. The following applies: HEp-2, 72 h. For orientation: Tetrazolium dyes change colour on reduction, which living cells bring about.
For a further assay, the system named is HeLa. The assay is described as follows: Antiproliferative activity against human HeLa cells after 72 hrs by MTT assay. The format is functional, cell-based.
In assay [2] the test system is MIA PaCa-2. Nature of the assay: Antiproliferative activity against human MiaPaCa2 cells after 72 hrs by MTT assay a. The following applies: MIA PaCa-2, 72 h. The format is functional, cell-based.
For a further assay, the system named is SW-620. Nature of the assay: Antiproliferative activity against human SW620 cells after 72 hrs by MTT assay. In kind it is functional, cell-based. Particulars: SW-620, 72 h.
The test system of another assay is MCF7. Nature of the assay: Antiproliferative activity against human MCF7 cells after 72 hrs by MTT assay. In kind it is functional, cell-based. Particulars: MCF7, 72 h.
Assay [3] in a line: Antiproliferative activity against human WI38 cells after 72 hrs by MTT assay. In kind it is cell-based. Particulars: WI-38, 72 h.
Assay [4] concerns MIA PaCa-2. The assay is described as follows: Effect on cell cycle in human MiaPaCa2 cells assessed as accumulation at sub-G1 phase at 5 uM after 24 hrs by […]. In kind it is functional.
Assay [5] is described as follows: Binding affinity to poly dA-poly dT 0.05 mol/dm^3 by UV/vis titration.
A short description of assay [6]: Binding affinity to poly A-poly U 0.05 mol/dm^3 by UV/vis titration.
Assay [7] relates to MIA PaCa-2. The assay is described as follows: Effect on cell cycle in human MiaPaCa2 cells assessed as accumulation at G1/G0 phase at 5 uM after 24 hrs by […]. In kind it is functional.
Assay [8] relates to MIA PaCa-2. The assay is described as follows: Effect on cell cycle in human MiaPaCa2 cells assessed as accumulation at S phase at 5 uM after 24 hrs by […]. In kind it is functional.
The test system of assay [9] is MIA PaCa-2. The assay is described as follows: Effect on cell cycle in human MiaPaCa2 cells assessed as accumulation at G2/M phase at 5 uM after 24 hrs by […]. The format is functional.
Assay [10] relates to MIA PaCa-2. The assay is described as follows: Effect on cell cycle in human MiaPaCa2 cells assessed as accumulation at sub-G1 phase at 5 uM after 48 hrs by Annexin-V assay. The format is functional.
The subject of assay [11] is MIA PaCa-2. Nature of the assay: Effect on cell cycle in human MiaPaCa2 cells assessed as accumulation at G1/G0 phase at 5 uM after 48 hrs by […]. The format is functional.
Assay [12] concerns MIA PaCa-2. Nature of the assay: Effect on cell cycle in human MiaPaCa2 cells assessed as accumulation at S phase at 5 uM after 48 hrs by […]. The format is functional.
Assay [13] has as its system MIA PaCa-2. The assay is described as follows: Effect on cell cycle in human MiaPaCa2 cells assessed as accumulation at G2/M phase at 5 uM after 48 hrs by […]. The format is functional.
Assay [14] has as its system MIA PaCa-2. The assay is described as follows: Effect on cell cycle in human MiaPaCa2 cells assessed as accumulation at sub-G1 phase at 5 uM after 72 hrs by Annexin-V assay. The format is functional.
For assay [15], the system named is MIA PaCa-2. Nature of the assay: Effect on cell cycle in human MiaPaCa2 cells assessed as accumulation at G1/G0 phase at 5 uM after 72 hrs by […]. The format is functional.
The subject of assay [16] is MIA PaCa-2. Nature of the assay: Effect on cell cycle in human MiaPaCa2 cells assessed as accumulation at S phase at 5 uM after 72 hrs by […]. In kind it is functional.
The subject of assay [17] is MIA PaCa-2. The assay is described as follows: Effect on cell cycle in human MiaPaCa2 cells assessed as accumulation at G2/M phase at 5 uM after 72 hrs by […]. In kind it is functional.
Assay [18] is described as follows: Binding affinity to poly dA-poly dT 0.15 mol/dm^3 by UV/vis titration.
Assay [19] is described as follows: Binding affinity to poly A-poly U 0.15 mol/dm^3 by UV/vis titration.

With `C[n+]1ccc(CCC(=O)OCCCC2=C/Nc3ccccc3/N=C/C(CCCOC(=O)CCc3cc[n+](C)cc3)=C\Nc3ccccc3\N=C\2)cc1.[Br-].[Br-]`, the log Ks in assay [1] amounted to 6.1; in [5], 5.3; in assay [6], 5.9. Besides, the IC50 with HEp-2 was found to be 38 µM; in the assay on HeLa, 13.5 µM; in the assay on MIA PaCa-2 [2], 2.6 µM; in the assay on SW-620, 4 µM; in the assay with MCF7 it was 2.6 µM; in [3] it was 4 µM. For the same compound, the Activity worked out at 5.3% with MIA PaCa-2 [4]; 62.32% in the assay with MIA PaCa-2 [7]; 16.29% with MIA PaCa-2 [8]; 21.76% in the assay with MIA PaCa-2 [9]; 10% with MIA PaCa-2 [10]; 79.3% with MIA PaCa-2 [11]. Besides, the Activity with MIA PaCa-2 [12] is recorded as 9.7%; with MIA PaCa-2 [13] it was 10.98%; with MIA PaCa-2 [14] it was 20%; in the assay with MIA PaCa-2 [15], 84.02%; in the assay with MIA PaCa-2 [16], 5.39%; in the assay with MIA PaCa-2 [17], 10.5%.
For `C1=C(CCC[n+]2ccccc2)\C=N\c2ccccc2N/C=C(CCC[n+]2ccccc2)\C=N\c2ccccc2N/1.[Br-].[Br-]`, the log Ks in assay [1] is 4.2; in assay [5], 6.1; in assay [6], 5.19; in assay [18], 4.77; in assay [19], 5.4. The IC50 in the assay on HEp-2 turned out to be 11 µM; in the assay on HeLa, 2 µM; with MIA PaCa-2 [2], 1.2 µM; with SW-620 it was 18.5 µM; with MCF7, 6 µM; in [3], 10 µM. Further, the Activity came to 9.2% in the assay on MIA PaCa-2 [4]; 47.56% in the assay with MIA PaCa-2 [7]; 28.4% in the assay with MIA PaCa-2 [8]; 24.054% in the assay on MIA PaCa-2 [9]; 11% in the assay with MIA PaCa-2 [10]; 65.59% in the assay with MIA PaCa-2 [11]. Further, the Activity with MIA PaCa-2 [12] worked out at 17.538%; with MIA PaCa-2 [13] it was 16.38%; with MIA PaCa-2 [14] it was 40%; with MIA PaCa-2 [15], 58.34%; in the assay with MIA PaCa-2 [16], 31.03%; in the assay with MIA PaCa-2 [17] it was 10.7%.
On to `C1=C(CCC[n+]2ccc(-c3ccncc3)cc2)\C=N\c2ccccc2N/C=C(CCC[n+]2ccc(-c3ccncc3)cc2)\C=N\c2ccccc2N/1`, for which the IC50 in the assay on HEp-2 was over 100 µM; with HeLa, over 100 µM; with MIA PaCa-2 [2] it was over 100 µM; in the assay on SW-620, over 50 µM; in the assay with MCF7 it was at least 100 µM; in assay [3], over 100 µM.

One may read the IC50 as the concentration needed to halve the response being measured.
